Our source for the GI50 and TGI values is PubChem BioAssay (NCI).

This test has as its system MDA-MB-468 breast. In words: NCI tumour cell line growth inhibition, 48 h.

SMILES strings stand for the structures.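 A five-concentration, 48-hour dose response in 96-well plates underlies each endpoint, interpolated linearly between surrounding concentrations. GI50 marks 50% less growth. TGI is the concentration that stops growth completely.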

With `C[C@@H]1CCC/C=C/[C@H]2C[C@@H](O)C[C@@H]2[C@@H](O)/C=C/C(=O)O1`, the GI50 is 0.0648 µM and the TGI was found to be 5.03 µM.
The corresponding values for `O=C(NCC(F)(F)F)Nc1cccc(-c2cnc3cc(-c4ccc(F)cc4)ccn23)c1` are 0.339 µM and 1.93 µM.
The corresponding values for `Cc1ccc(-c2nc(/C=N/Nc3cc(C)nc4ccc(Cl)cc34)c(C)o2)cc1` are 1.73 µM and 3.26 µM.
Consider `NS(=O)(=O)c1ccc(Nc2nc(N/N=C/c3ccc(C(F)(F)F)cc3)nc(Nc3ccccc3)n2)cc1`, for which the GI50 is 1.73 µM and the TGI worked out at 3.87 µM.
`O=C(NCCCc1cn[nH]c1)c1ccc(-c2ccncc2)c(C#Cc2ccc(F)cc2)c1`: the GI50 was 2.14 µM and the TGI came out at 12.8 µM.
The corresponding values for `O=C(NC(=O)c1c(Cl)nc2sccn12)Nc1ccc(Cl)cc1` are 3.95 µM and 35.7 µM.
For `CSc1nc2nc3c(nc2c(=O)n1C)C(=O)c1ccccc1C3=O` the same measures were 0.14 µM and 0.352 µM.
The corresponding values for `CC/C(Cc1ccccc1)=C(\c1ccc(OCCN2CCCC2)cc1)c1ccc(OC(=O)NCc2ccccc2)cc1` are 1.99 µM and 3.93 µM.
As for `Cc1c(C#N)cccc1[C@@H](C)Nc1nnc(C)c2cnc(N3CCOCC3)cc12`, the GI50 is 7.63 µM and the TGI was found to be 38.1 µM.
For the molecule `COc1ccc(C(=O)c2cc(C)c(OC)c(C)c2)c(OC)c1NC(C)=O`, the GI50 is 0.159 µM.
Take `Clc1ccc(-c2c3ccc(=[N+]4CCCCC4)cc-3oc3cc(N4CCCCC4)ccc23)cc1`: the GI50 is 0.104 µM and the TGI amounted to 0.261 µM.
For `CCN(CC)CCCC(C)Nc1cc(-c2cccc(OC(F)(F)F)c2)nc2ccc(N3CCCC3)cc12` (stereo unspecified) the same measures were 0.0435 µM and 44 µM.
For `O=C(/C=C/C=C/c1ccccc1)c1ccco1` the same measures were 5 µM and 25.1 µM.
In the case of `CS(=O)(=O)c1ccc(Nc2nc(N[C@H]3CCCC[C@H]3N)nc3cc[nH]c(=O)c23)cc1`, the GI50 was 0.338 µM and the TGI was 1.46 µM.
Consider `O=C1/C(=C/c2ccc(F)cc2)CN(C(=O)CCN2CCC(=NO)CC2)C/C1=C\c1ccc(F)cc1`, for which the GI50 is 1.73 µM and the TGI was determined as 4.72 µM.
With `NC(=O)c1ccc(Oc2nccc(-c3c(-c4ccc(F)cc4)ncn3C3CCNCC3)n2)cc1`, the GI50 was 7.4 µM and the TGI was greater than 25 µM.
